These results are taken from ChEMBL document CHEMBL3297723, “Ethyl 1,8-naphthyridone-3-carboxylates downregulate human papillomavirus-16 E6 and E7 oncogene expression” (J Med Chem, 2014).

Data set [1] in a line: Selectivity index, ratio of CC50 for human P21 cells to IC50 for HPV-16 LCR transcriptional activity in human P21 cells. The format is functional.
The nature of data set [2]: Drug uptake in human CaSki cells at 10 uM after 1 hr by reverse-phase HPLC analysis. To be noted: ca-ski. The format is ADME, cell-based.
A short description of data set [3]: Cytotoxicity against human CaSki cells assessed as inhibition of cell proliferation at 10 uM after 24 hrs by CellTiter96 assay. The format is cell-based. Particulars: ca-ski.
Data set [4] concerns P21. The experiment in a line: Inhibition of HPV-16 LCR transcriptional activity in human P21 cells at 100 uM after 24 hrs by luciferase reporter gene assay. The format is cell-based. Particulars: Alphapapillomavirus 9. For orientation: Reporter assays use an easily measured gene product as a stand-in for the process of interest.
The nature of data set [5]: Cytotoxicity against human P21 cells assessed as inhibition of cell viability after 24 hrs by CellTiter96 assay. The format is cell-based.
A short description of data set [6]: Drug uptake in human CaSki cells at 10 uM after 16 hrs by reverse-phase HPLC analysis. Type of data set: ADME, cell-based. To be noted: ca-ski.
The test system of data set [7] is P21. The experiment in a line: Inhibition of HPV-16 LCR transcriptional activity in human P21 cells at 30 uM after 24 hrs by luciferase reporter gene assay. The format is cell-based. To be noted: Alphapapillomavirus 9.
Data set [8] can be described thus: (§1) Inhibition of HPV-16 LCR transcriptional activity in human P21 cells after 24 hrs by luciferase reporter gene assay. To be noted: Alphapapillomavirus 9, P21, 24 h. The format is cell-based.
In data set [9] the test system is Ca-Ski. In words: Inhibition of LCR-mediated E7 mRNA expression in HPV-16-positive human CaSki cells at 10 uM after 24 hrs by RT-PCR analysis. To be noted: Alphapapillomavirus 9. Type of data set: cell-based.
Data set [10] concerns Ca-Ski. In words: Inhibition of LCR-mediated E6 mRNA expression in HPV-16-positive human CaSki cells at 10 uM after 24 hrs by RT-PCR analysis. Type of data set: cell-based. Particulars: Alphapapillomavirus 9.
The subject of data set [11] is P21. Described as §1. Type of data set: cell-based. Particulars: Alphapapillomavirus 9.
In another data set the test system is Human alphaherpesvirus 2. The experiment in a line: Antiviral activity against HSV2 infected in african green monkey Vero cells assessed as protection against virus-induced cytopathogenicity. The format is functional, organism-based. (In general: Cytopathic effects are the visible damage that an infection or toxin causes in cultured cells.)
A further data set concerns Rotavirus. In words: Antiviral activity against HRV infected in […] cells assessed as protection against virus-induced cytopathogenicity. Type of data set: functional, organism-based.
The test system of data set [12] is Vesicular stomatitis virus. In words: Antiviral activity against VSV infected in african green monkey Vero cells assessed as protection against virus-induced cytopathogenicity. The format is functional, organism-based.
Data set [13] deals with Human immunodeficiency virus 1. In words: Antiviral activity against HIV-1 3B infected in human MT4 cells assessed as protection against virus-induced cytopathogenicity. Type of data set: functional, organism-based.
The test system of the next data set is Human orthopneumovirus. The experiment in a line: Antiviral activity against RSV infected in human Hep2 cells assessed as protection against virus-induced cytopathogenicity. Type of data set: functional, organism-based. To be noted: human respiratory syncytial virus; HEp-2.

Active and inactive are the calls of the source. The calls are words filed in the database; no cut-off is given here.

By inhibition is commonly meant the drop in the measured response relative to a control, in per cent. The CC50 is the concentration that lowers cell viability or growth by half. A word on the IC50: it is the point on the concentration scale where inhibition reaches its midpoint. Regarding `O=C(O)c1cn(Cc2cccc(Cl)c2F)c2nc(N3CCN(c4ccc5ccccc5n4)CC3)ccc2c1=O`, in data set [1], the “Ratio CC50/IC50” value is 6.1. Besides, the Drug uptake in data set [2] came to 20%; in [6] it was 38%. The Activity result in data set [3] was “Non-toxic”. The inhibition in the data set on P21 [4] came out at 100%; with P21 [7], 99.3%. The CC50 at 24 h in [5] was 17.6 µM. Inhibition in [8] was half-maximal at 2.86 µM (IC50).
Regarding `CCOC(=O)c1cn(Cc2ccc(C(F)(F)F)cc2)c2nc(N3CCN(c4nc5ccccc5s4)CC3)ccc2c1=O`, the “Ratio CC50/IC50” value in [1] was 7.16. For the same molecule, the inhibition in the data set with P21 [4] was determined as 89.3%; with P21 [7] it was 67.5%. Also, the CC50 at 24 h in data set [5] was 78.2 µM. In [8], this molecule registered a half-maximal inhibitory concentration (IC50) of 10.9 µM.
Taken in the same sequence, the figures for `CCOC(=O)c1cn(Cc2ccccc2F)c2nc(N3CCN(c4nc5ccccc5s4)CC3)ccc2c1=O` were >23.9, 75.6%, 88.6%, > 100 µM and 4.18 µM.
On to `CCOC(=O)c1cn(Cc2cccc(Cl)c2F)c2nc(N3CCN(c4nccs4)CC3)ccc2c1=O`, for which the “Ratio CC50/IC50” value in [1] was found to be 20.9. The Drug uptake entry in data set [2] was “Not Active”; in data set [6], 70%. Moreover, the Activity result in [3] is listed as “Non-toxic”. The inhibition with Ca-Ski [9] is 72.7%; in the data set on P21 [4] it was 99.7%; in the data set with Ca-Ski [10] it was 71.7%; in the data set with P21 [7] it was 98%. The CC50 at 24 h in [5] was determined as 25.3 µM. This molecule also gave an IC50 in data set [8] of 1.21 µM.
On to `O=C(O)c1cn(Cc2ccccc2)c2nc(N3CCN(c4nc5ccccc5s4)CC3)ccc2c1=O`, for which the “Ratio CC50/IC50” value in data set [1] was found to be 15.2. The Activity result in data set [3] is recorded as “Non-toxic”. Moreover, the inhibition in the data set on P21 [4] and in the data set with P21 [7] was 100% in each case. Further, in [5], the CC50 at 24 h turned out to be 69.6 µM. In addition, 4.55 µM corresponded to half-maximal inhibition in data set [8] (IC50).
As to `CCOC(=O)c1cn(Cc2cccc(Cl)c2)c2nc(N3CCN(c4nc5ccccc5s4)CC3)ccc2c1=O`, in data set [1], the “Ratio CC50/IC50” value is on record as >38.1. For the same molecule, the Activity entry in data set [3] was “Non-toxic”. Moreover, the inhibition in the data set on P21 [4] and in the data set with P21 [7] was 96% in each case. In addition, the CC50 at 24 h in data set [5] is > 100 µM. The IC50 in data set [8] came to 2.62 µM.
With `CCOC(=O)c1cn(Cc2cccc(Cl)c2F)c2nc(N3CCN(c4ccccn4)CC3)ccc2c1=O`, in [1], the “Ratio CC50/IC50” value was >89.2. In addition, in [3], the Activity result is “Non-toxic”. The figures for the inhibition in the data set with P21 [4], in the data set with P21 [7] and in the data set with P21 [11] were 93.1%, 89.2% and “Dose-dependent effect”, respectively. Besides, the CC50 at 24 h in [5] is > 100 µM. The molecule further displayed a half-maximal inhibitory concentration (IC50) in data set [8] of 1.12 µM.
As for `O=C(O)c1cn(Cc2cccc(Cl)c2F)c2nc(N3CCN(c4ccccn4)CC3)ccc2c1=O`, the Activity entry in [3] was “Non-toxic”. Besides, the results for the inhibition in the data set with P21 [4] and in the data set with P21 [7] were 25.8% and 30.5%, respectively.
With `CCOC(=O)c1cn(Cc2ccc(Cl)cc2)c2nc(N3CCN(c4nc5ccccc5s4)CC3)ccc2c1=O`, the “Ratio CC50/IC50” value in data set [1] is reported as >42.1. Moreover, the Activity entry in data set [3] is “Non-toxic”. In addition, the inhibition in the data set with P21 [4] and in the data set on P21 [7] was 90% throughout. Besides, the CC50 at 24 h in data set [5] is > 100 µM. The molecule also displayed an IC50 in data set [8] of 2.37 µM.
On to `CCOC(=O)c1cn(Cc2cccc(Cl)c2F)c2nc(N3CCN(c4nc5ccccc5o4)CC3)ccc2c1=O`, for which the “Ratio CC50/IC50” value in data set [1] is >256. Moreover, the inhibition in the data set on P21 [4] amounted to 83.9%; in the data set on P21 [7], 88.1%. Also, the CC50 at 24 h in data set [5] is > 100 µM. For the same molecule, half-maximal inhibition in data set [8] (IC50) required 0.39 µM.
On to `O=C(O)c1cn(Cc2cccc(Cl)c2F)c2nc(N3CCN(c4nc5ccccc5s4)CC3)ccc2c1=O`, for which the figures for the Drug uptake in data set [2] and in data set [6] were 20% and 35%, respectively. Also, the Activity entry in [3] is given as “Non-toxic”. The inhibition is 56% in the data set on P21 [4] and 38.3% with P21 [7].
As for `CCOC(=O)c1cn(CCc2ccc(Cl)cc2)c2nc(N3CCN(c4nc5ccccc5s4)CC3)ccc2c1=O`, the inhibition was found to be 50.4% in the data set with P21 [4] and 49.6% in the data set with P21 [7].
`CCOC(=O)c1cn(CCc2ccccn2)c2nc(N3CCN(c4nc5ccccc5s4)CC3)ccc2c1=O`: in data set [1], the “Ratio CC50/IC50” value is on record as 16.2. Moreover, the inhibition worked out at 100% in the data set with P21 [4] and 87% with P21 [7]. The CC50 at 24 h in data set [5] is 17.1 µM. In data set [8], this molecule had a 50% inhibitory concentration (IC50) of 1.05 µM.
On to `O=C(O)c1cn(Cc2cccc(Cl)c2F)c2nc(N3CCN(c4nccs4)CC3)ccc2c1=O`, for which the values for the Drug uptake in [2] and in data set [6] were 20% and 63%, respectively. Moreover, the Activity entry in [3] is “Non-toxic”. Further, the results for the inhibition in the data set with P21 [4] and in the data set with P21 [7] were 2.1% and 7.39%, respectively.
Regarding `O=C(O)c1cn(Cc2ccccn2)c2nc(N3CCN(c4nc5ccccc5s4)CC3)ccc2c1=O`, the inhibition with P21 [4] is 61%; in the data set with P21 [7] it was 24%.
Consider `CCOC(=O)c1cn(Cc2cccc(Cl)c2F)c2nc(N3CCN(c4nc5ccccc5s4)CC3)ccc2c1=O`, for which the result (in the data set with Human alphaherpesvirus 2; in [12]; in the data set on Human orthopneumovirus) was Active. The “Ratio CC50/IC50” value in data set [1] was >385. Further, the outcome (in the data set with Rotavirus; in data set [13]) was inactive. The Drug uptake result is “Not Active” in data set [2] and 15% in data set [6]. Also, in [3], the Activity entry is given as “Non-toxic”. For the same molecule, the results for the inhibition with P21 [4] and with P21 [7] were 94.9% and 82.8%, respectively. In addition, the cytotoxic concentration (CC50) at 24 h in data set [5] is > 100 µM. The same molecule registered an IC50 in data set [8] of 0.26 µM.
For the molecule `CCOC(=O)c1cn(Cc2ccccn2)c2nc(N3CCN(c4nc5ccccc5s4)CC3)ccc2c1=O`, the “Ratio CC50/IC50” value in data set [1] is on record as 6.5. Further, the inhibition was found to be 73.4% in the data set with P21 [4] and 63.1% in the data set with P21 [7]. In [5], the cytotoxic concentration (CC50) at 24 h came out at 34.6 µM. In data set [8], the IC50 was 5.3 µM.
For the molecule `CCOC(=O)c1cn(Cc2nc3ccccc3[nH]2)c2nc(N3CCN(c4nc5ccccc5s4)CC3)ccc2c1=O`, the figures for the inhibition in the data set with P21 [4] and in the data set with P21 [7] were 45.5% and 38.3%, respectively.
As for `CCOC(=O)c1cn(Cc2cccc(Cl)c2F)c2nc(N3CCN(c4ccc5ccccc5n4)CC3)ccc2c1=O`, the “Ratio CC50/IC50” value in data set [1] is listed as 282. Further, the Drug uptake entry in data set [2] was “Not Active”; in data set [6], 40%. Further, the Activity result in [3] is on record as “Non-toxic”. Besides, the inhibition with Ca-Ski [9] came to 57.4%; in the data set on P21 [4], 93.7%; with Ca-Ski [10], 61.5%; with P21 [7], 92.3%. Also, the cytotoxic concentration (CC50) at 24 h in [5] is 59.3 µM. In data set [8], inhibition was half-maximal at 0.21 µM (IC50).
With `CCOC(=O)c1cn(Cc2ccccc2)c2nc(N3CCN(c4nc5ccccc5s4)CC3)ccc2c1=O`, in data set [1], the “Ratio CC50/IC50” value came out at 268. Also, the Activity result in data set [3] is reported as “Non-toxic”. In addition, the inhibition in the data set with P21 [4] worked out at 98.1%; in the data set on P21 [7] it was 98.2%. Further, in data set [5], the half-maximal cytotoxic concentration (CC50) at 24 h was 61.7 µM. In addition, the 50% inhibitory concentration (IC50) in data set [8] is 0.23 µM.
In the case of `O=C(O)c1cn(CCc2ccccn2)c2nc(N3CCN(c4nc5ccccc5s4)CC3)ccc2c1=O`, the inhibition in the data set on P21 [4] and in the data set with P21 [7] was 0% throughout.
As to `CCOC(=O)c1cn(Cc2ccc3[nH]ccc3c2)c2nc(N3CCN(c4nc5ccccc5s4)CC3)ccc2c1=O`, the “Ratio CC50/IC50” value in data set [1] is listed as >769. Also, in data set [3], the Activity result is reported as “Non-toxic”. The inhibition in the data set with P21 [4] came to 90.2%; in the data set on P21 [7], 93.6%. The CC50 at 24 h in data set [5] was > 100 µM. Besides, the IC50 in data set [8] was determined as 0.13 µM.
